Where “and” joins values, the source holds several entries; their conditions need not be identical. Equal entries are not always repeated.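 1) Cells in 96-well plates. 2) Compound, 48 h, 5 concentrations. 3) Linear interpolation between surrounding doses. 4) Unreached endpoint = highest concentration. Here, GI50 denotes the concentration required for 50% inhibition of growth. TGI denotes the concentration required for complete inhibition of growth.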

The first assay has as its system LOX IMVI melanoma. The experiment in a line: DTP human tumour cell line panel, 48 h.
As usually defined, the GI50 is the concentration that inhibits growth by half. A word on the TGI: it is the concentration at which net growth stops. Low values mean greater sensitivity of the cells, high ones lower sensitivity of the cells. Regarding `O=C(Nc1ccc(OC(F)(F)F)cc1)c1sccc1NCc1ccnc2ccccc12`, the GI50 is 2.85 µM and the TGI came to 13.5 µM.

With `COc1ccc(-c2cc(-c3ccc(Cl)cc3)c(C#N)c(=O)n2CCCCC(=O)Nc2ccccc2N)cc1`, the GI50 was 1.16 µM and the TGI is 2.92 µM.

Turning to `CN1CCCN(CCNc2nccc(-c3c(-c4cccc(O)c4)nc4sccn34)n2)S1(=O)=O`, the GI50 is 1.55 µM and 1.99 µM; the TGI was 16.7 µM and 21.5 µM.

For `CCOC(=O)c1c(NC(=O)c2ccc(C(C)C)cc2)sc2c(CN(C)C)c(O)ccc12`, the GI50 is 1.76 µM and the TGI is 3.23 µM.

With `Cc1ccc(C(=O)Nc2ccc(CN3CCN(C)CC3)c(C(F)(F)F)c2)cc1C#Cc1cnc(N)c2ccc(F)cc12`, the GI50 is 0.216 µM and the TGI worked out at 0.557 µM.

As to `CC1(C)CCC(C)(C)c2cc(C(=O)Nc3ccc(C(=O)O)cc3)ccc21`, the TGI is > 58.2 µM.

As for `Clc1ccccc1NN(Cc1ccccn1)c1ccccc1Cl`, the TGI is 32.8 µM.

As to `Cc1cc2c(C(C)C)c(O)c(O)c(C=Nc3cc(C(F)(F)F)ccc3Cl)c2c(O)c1-c1c(C)cc2c(C(C)C)c(O)c(O)c(C=Nc3cc(C(F)(F)F)ccc3Cl)c2c1O`, the TGI came to 47.3 µM.

Turning to `CCCCN1C(=O)CC2[C@@H]3CCc4cc(OC)ccc4C3CC[C@]2(C)C1=O` (stereo not given in full), the TGI was > 10 µM.

Take `CC(CO)[C@H]1OC(=O)C=C2[C@@]13O[C@@H]3[C@H]1OC(=O)[C@@]3(C)[C@H]4O[C@H]4C[C@@]2(C)[C@@H]13` (stereo not given in full): the TGI was 1.14 µM.

For `COc1cc2cc(Oc3ccc(NC(=O)c4cccc(C(F)(F)F)c4)cc3)c(C)nc2cc1OC`, the GI50 was 4.36 µM and the TGI was > 100 µM.

`COc1cc(/C=C2\CN(C)CC3=C2Nc2nc(SC)[nH]c(=O)c2C3c2cc(OC)c(OC)c(OC)c2)cc(OC)c1OC` (stereo not given): the GI50 was 1.66 µM and the TGI was 3.94 µM.

As for `Cc1nc(SCC(N)=O)c2sc(=S)n(-c3ccccc3)c2n1`, the total growth inhibition concentration (TGI) is > 10 µM.

The subject of a further assay is EKVX NSCLC. In words: DTP human tumour cell line panel, 48 h.
As for `O=C(Nc1ccc(OC(F)(F)F)cc1)c1sccc1NCc1ccnc2ccccc12`, the GI50 is 2.35 µM and the TGI is > 100 µM.

Regarding `COc1ccc(-c2cc(-c3ccc(Cl)cc3)c(C#N)c(=O)n2CCCCC(=O)Nc2ccccc2N)cc1`, the GI50 was 3.25 µM and the TGI is 91.3 µM.

With `CN1CCCN(CCNc2nccc(-c3c(-c4cccc(O)c4)nc4sccn34)n2)S1(=O)=O`, the GI50 is 31.1 µM and 30.3 µM; the TGI is 75 µM and > 100 µM.

Regarding `CCOC(=O)c1c(NC(=O)c2ccc(C(C)C)cc2)sc2c(CN(C)C)c(O)ccc12`, the GI50 was 2.78 µM and the TGI was determined as 9.09 µM.

As to `Cc1ccc(C(=O)Nc2ccc(CN3CCN(C)CC3)c(C(F)(F)F)c2)cc1C#Cc1cnc(N)c2ccc(F)cc12`, the GI50 was 1.06 µM and the total growth inhibition concentration (TGI) was 4.73 µM.

Take `CC1(C)CCC(C)(C)c2cc(C(=O)Nc3ccc(C(=O)O)cc3)ccc21`: the TGI is > 100 µM.

In turn, `Clc1ccccc1NN(Cc1ccccn1)c1ccccc1Cl` had a TGI of 52.5 µM.

Turning to `Cc1cc2c(C(C)C)c(O)c(O)c(C=Nc3cc(C(F)(F)F)ccc3Cl)c2c(O)c1-c1c(C)cc2c(C(C)C)c(O)c(O)c(C=Nc3cc(C(F)(F)F)ccc3Cl)c2c1O`, the TGI is > 100 µM.

In the case of `CCCCN1C(=O)CC2[C@@H]3CCc4cc(OC)ccc4C3CC[C@]2(C)C1=O` (stereo not given in full), the total growth inhibition concentration (TGI) is > 10 µM.

Turning to `CC(CO)[C@H]1OC(=O)C=C2[C@@]13O[C@@H]3[C@H]1OC(=O)[C@@]3(C)[C@H]4O[C@H]4C[C@@]2(C)[C@@H]13` (stereo not given in full), the TGI stood at 18.3 µM.

Take `COc1cc2cc(Oc3ccc(NC(=O)c4cccc(C(F)(F)F)c4)cc3)c(C)nc2cc1OC`: the GI50 was 4.39 µM and the TGI is > 100 µM.

For `COc1cc(/C=C2\CN(C)CC3=C2Nc2nc(SC)[nH]c(=O)c2C3c2cc(OC)c(OC)c(OC)c2)cc(OC)c1OC` (stereo not given), the GI50 is 8.44 µM and the concentration for total growth inhibition (TGI) came out at 66.4 µM.

For `Cc1nc(SCC(N)=O)c2sc(=S)n(-c3ccccc3)c2n1`, the TGI is > 10 µM.

The next assay concerns A549 NSCLC. In words: DTP human tumour cell line panel, 48 h.
`O=C(Nc1ccc(OC(F)(F)F)cc1)c1sccc1NCc1ccnc2ccccc12`: the GI50 was 4.11 µM and the TGI is > 100 µM.

With `COc1ccc(-c2cc(-c3ccc(Cl)cc3)c(C#N)c(=O)n2CCCCC(=O)Nc2ccccc2N)cc1`, the GI50 is 4.94 µM and the TGI was > 100 µM.

On to `CN1CCCN(CCNc2nccc(-c3c(-c4cccc(O)c4)nc4sccn34)n2)S1(=O)=O`, for which the GI50 is 7.46 µM and 7.71 µM; the TGI is 75 µM and > 100 µM.

Regarding `CCOC(=O)c1c(NC(=O)c2ccc(C(C)C)cc2)sc2c(CN(C)C)c(O)ccc12`, the GI50 is 4.29 µM and the total growth inhibition concentration (TGI) is 20.7 µM.

With `Cc1ccc(C(=O)Nc2ccc(CN3CCN(C)CC3)c(C(F)(F)F)c2)cc1C#Cc1cnc(N)c2ccc(F)cc12`, the GI50 is 0.27 µM and the TGI was determined as 0.712 µM.

With `CC1(C)CCC(C)(C)c2cc(C(=O)Nc3ccc(C(=O)O)cc3)ccc21`, the TGI was > 75.1 µM.

Turning to `Clc1ccccc1NN(Cc1ccccn1)c1ccccc1Cl`, the TGI came out at 37.2 µM.

For `Cc1cc2c(C(C)C)c(O)c(O)c(C=Nc3cc(C(F)(F)F)ccc3Cl)c2c(O)c1-c1c(C)cc2c(C(C)C)c(O)c(O)c(C=Nc3cc(C(F)(F)F)ccc3Cl)c2c1O`, the TGI is > 100 µM.

Regarding `CCCCN1C(=O)CC2[C@@H]3CCc4cc(OC)ccc4C3CC[C@]2(C)C1=O` (stereo not given in full), the total growth inhibition concentration (TGI) was > 10 µM.

With `CC(CO)[C@H]1OC(=O)C=C2[C@@]13O[C@@H]3[C@H]1OC(=O)[C@@]3(C)[C@H]4O[C@H]4C[C@@]2(C)[C@@H]13` (stereo not given in full), the TGI is > 39.8 µM.

Turning to `COc1cc2cc(Oc3ccc(NC(=O)c4cccc(C(F)(F)F)c4)cc3)c(C)nc2cc1OC`, the GI50 was 4.28 µM and the TGI was > 100 µM.

With `COc1cc(/C=C2\CN(C)CC3=C2Nc2nc(SC)[nH]c(=O)c2C3c2cc(OC)c(OC)c(OC)c2)cc(OC)c1OC` (stereo not given), the GI50 is 3.26 µM and the TGI amounted to 13.7 µM.

In the case of `Cc1nc(SCC(N)=O)c2sc(=S)n(-c3ccccc3)c2n1`, the TGI was > 10 µM.

The next assay has as its system SNB-19 CNS. The experiment in a line: DTP human tumour cell line panel, 48 h.
`O=C(Nc1ccc(OC(F)(F)F)cc1)c1sccc1NCc1ccnc2ccccc12`: the GI50 was 13 µM and the TGI is > 100 µM.

As for `COc1ccc(-c2cc(-c3ccc(Cl)cc3)c(C#N)c(=O)n2CCCCC(=O)Nc2ccccc2N)cc1`, the GI50 is 22.2 µM and the TGI is > 100 µM.

As for `CN1CCCN(CCNc2nccc(-c3c(-c4cccc(O)c4)nc4sccn34)n2)S1(=O)=O`, the GI50 was 40 µM and 48.7 µM; the TGI was 75 µM and > 100 µM.

As to `CCOC(=O)c1c(NC(=O)c2ccc(C(C)C)cc2)sc2c(CN(C)C)c(O)ccc12`, the GI50 was 2.36 µM and the TGI was 5.3 µM.

As to `Cc1ccc(C(=O)Nc2ccc(CN3CCN(C)CC3)c(C(F)(F)F)c2)cc1C#Cc1cnc(N)c2ccc(F)cc12`, the GI50 is 0.641 µM and the TGI was 1.81 µM.

On to `CC1(C)CCC(C)(C)c2cc(C(=O)Nc3ccc(C(=O)O)cc3)ccc21`, for which the TGI is > 66.4 µM.

For the compound `Clc1ccccc1NN(Cc1ccccn1)c1ccccc1Cl`, the TGI was determined as 79.7 µM.

Turning to `Cc1cc2c(C(C)C)c(O)c(O)c(C=Nc3cc(C(F)(F)F)ccc3Cl)c2c(O)c1-c1c(C)cc2c(C(C)C)c(O)c(O)c(C=Nc3cc(C(F)(F)F)ccc3Cl)c2c1O`, the total growth inhibition concentration (TGI) is > 100 µM.

Consider `CCCCN1C(=O)CC2[C@@H]3CCc4cc(OC)ccc4C3CC[C@]2(C)C1=O` (stereo not given in full), for which the TGI is > 10 µM.

Regarding `CC(CO)[C@H]1OC(=O)C=C2[C@@]13O[C@@H]3[C@H]1OC(=O)[C@@]3(C)[C@H]4O[C@H]4C[C@@]2(C)[C@@H]13` (stereo not given in full), the TGI was > 30.8 µM.

Regarding `COc1cc2cc(Oc3ccc(NC(=O)c4cccc(C(F)(F)F)c4)cc3)c(C)nc2cc1OC`, the GI50 is 8.09 µM and the TGI was > 100 µM.

On to `COc1cc(/C=C2\CN(C)CC3=C2Nc2nc(SC)[nH]c(=O)c2C3c2cc(OC)c(OC)c(OC)c2)cc(OC)c1OC` (stereo not given), for which the GI50 is 8.65 µM and the total growth inhibition concentration (TGI) turned out to be 21.9 µM.

`Cc1nc(SCC(N)=O)c2sc(=S)n(-c3ccccc3)c2n1`: the TGI was > 10 µM.

The next assay has as its system MALME-3M melanoma. In words: DTP human tumour cell line panel, 48 h.
Consider `O=C(Nc1ccc(OC(F)(F)F)cc1)c1sccc1NCc1ccnc2ccccc12`, for which the GI50 is 1.85 µM and the TGI is 14.6 µM.

In the case of `COc1ccc(-c2cc(-c3ccc(Cl)cc3)c(C#N)c(=O)n2CCCCC(=O)Nc2ccccc2N)cc1`, the GI50 is 4.7 µM and the TGI turned out to be 31.1 µM.

As to `CN1CCCN(CCNc2nccc(-c3c(-c4cccc(O)c4)nc4sccn34)n2)S1(=O)=O`, the GI50 is 0.0583 µM and the TGI came to 3.91 µM.

On to `CCOC(=O)c1c(NC(=O)c2ccc(C(C)C)cc2)sc2c(CN(C)C)c(O)ccc12`, for which the GI50 was 1.72 µM and the TGI is 3.22 µM.

Regarding `Cc1ccc(C(=O)Nc2ccc(CN3CCN(C)CC3)c(C(F)(F)F)c2)cc1C#Cc1cnc(N)c2ccc(F)cc12`, the GI50 is 0.141 µM and the concentration for total growth inhibition (TGI) stood at 0.597 µM.

On to `CC1(C)CCC(C)(C)c2cc(C(=O)Nc3ccc(C(=O)O)cc3)ccc21`, for which the TGI was > 100 µM.

`Clc1ccccc1NN(Cc1ccccn1)c1ccccc1Cl`: the TGI came out at 37.4 µM.

In turn, `Cc1cc2c(C(C)C)c(O)c(O)c(C=Nc3cc(C(F)(F)F)ccc3Cl)c2c(O)c1-c1c(C)cc2c(C(C)C)c(O)c(O)c(C=Nc3cc(C(F)(F)F)ccc3Cl)c2c1O` showed a TGI of 95 µM.

Take `CCCCN1C(=O)CC2[C@@H]3CCc4cc(OC)ccc4C3CC[C@]2(C)C1=O` (stereo not given in full): the total growth inhibition concentration (TGI) was > 10 µM.

In turn, `CC(CO)[C@H]1OC(=O)C=C2[C@@]13O[C@@H]3[C@H]1OC(=O)[C@@]3(C)[C@H]4O[C@H]4C[C@@]2(C)[C@@H]13` (stereo not given in full) displayed a TGI of 8.46 µM.

Consider `COc1cc2cc(Oc3ccc(NC(=O)c4cccc(C(F)(F)F)c4)cc3)c(C)nc2cc1OC`, for which the GI50 was > 100 µM and the TGI was > 100 µM.

In the case of `COc1cc(/C=C2\CN(C)CC3=C2Nc2nc(SC)[nH]c(=O)c2C3c2cc(OC)c(OC)c(OC)c2)cc(OC)c1OC` (stereo not given), the GI50 is 2.82 µM and the TGI amounted to 9.44 µM.

As to `Cc1nc(SCC(N)=O)c2sc(=S)n(-c3ccccc3)c2n1`, the TGI was > 10 µM.

The values are drawn from PubChem BioAssay (NCI).
